Laboratory results from patent US20250129097.
Read-outs that look alike come from different tables or passages of the source.

Columns and labels:
[1] = ester bond, 18-membered ring, EDCI/HOBt/DIEA, DCM
[2] = from CCn1c(-c2cc(N3CCN(c4cccc(COC=O)c4)CC3)cnc2[C@H](C)OC)c(CC(C)(C)CO)c2cc([C@@H]3C[C@H]3CC[C@H](NC(=O)OC(C)(C)C)C(=O)N3CCC[C@@H](C(=O)O)N3)ccc21; ester bond; 18-membered ring; EDCI/HOBt/DIEA; DCM; 10.8 mM; 45.0 °C; 16.0 h

For `CCn1c(-c2cc(N3CCN(C(=O)OCc4ccccc4)CC3)cnc2[C@@H](C)OC)c(CC(C)(C)CO)c2cc([C@H]3C[C@@H]3N(C)C[C@@H](NC(=O)OC(C)(C)C)C(=O)N3CCC[C@@H](C(=O)OC)N3)ccc21`, the ring closure, isolated yield ([1]; the molecule shown is the open-chain precursor, 10.3 mM, 35.0 °C) was 16%.

`CCn1c(-c2cc(N3CCN(c4cccc(COC=O)c4)CC3)cnc2[C@H](C)OC)c2c3cc(ccc31)[C@@H]1C[C@H]1CC[C@H](NC(=O)OC(C)(C)C)C(=O)N1CCC[C@H](N1)C(=O)OCC(C)(C)C2` gave a ring closure, yield after HPLC [2] of 4.8%.

Molecule `CCn1c(-c2cccnc2[C@H](C)OC)c2c3cc(ccc31)[C@@H]1C[C@H]1OC[C@H](NC(=O)OC(C)(C)C)C(=O)N1CCC[C@H](N1)C(=O)OCC(C)(C)C2` has a ring closure, isolated yield ([1]; from CCn1c(-c2cccnc2[C@H](C)OC)c(CC(C)(C)CO)c2cc([C@@H]3C[C@H]3OC[C@H](NC(=O)OC(C)(C)C)C(=O)N3CCC[C@@H](C(=O)O)N3)ccc21, 13.8 mM, 20.0 °C, 12.0 h) of 37%.
